# Source: patent publication US7517882B2, “Protein kinase inhibitors” (Polaris Group, priority 2006, dated 2009)
# Legend:
# PC-3 cells = test: Inhibition of cell growth (MTT), PC-3 cells; details: Homo sapiens, PC-3, 120 h, read-out: IC50 PC-3
# Description: (§1) HCT-116 and PC-3 cells were cultured at 37° C. with 5% CO2 and in 10% fetal bovine serum with McCoy's 5A modified medium and F-12 K medium respectively. Cells were plated on 96 well plates at a density of 2,000-4,000/well in the volume of 100 μL medium. […] The control wells contained 1% dimethylsulfoxide only in their medium. After further incubation of three to five days to allow cells grow before the control cells reach confluence, 15 μL/well MTT reagent (5 mg/mL) were added and incubated for 4 h. After the incubation, the medium was removed and the newly generated formazan solubilized with dimethylsulfoxide (100 μL/well) and measured at 540 nm. The absorption data were fit into equation and calculated for IC50 values through use of the program KaleidaGraph (Synergy Software). The fitting equation for IC50 is y=a+b/(1+(x/IC50)); x is the compound concentration, a is the background absorption at 540 nm, and b is the absorption at zero compound concentration.
# HCT-116 cells = test: Inhibition of cell growth (MTT), HCT-116 cells; details: Homo sapiens, HCT-116, 120 h, read-out: IC50 HCT 116 cells
# Description: as §1
# human CK2 = molecular target: T1, human CK2 (Homo sapiens, UniProt P68400); test: CK2 protein kinase inhibition assay (spectrophotometric PK/LDH coupled assay); format: biochemical
# T1 construct: Full Length His-tagged Human CK2 was cloned, expressed, and purified; His tag; made in house; host or cells: E. coli
# Description: CK2 protein kinase activity was measured through use of a spectrophotometric PK/LDH coupled assay to detect ATP turnover. Full Length His-tagged Human CK2 was cloned, expressed, and purified from an E. coli expression system. The peptide substrate for CK2 phosphorylation was […] (Genscript Corporation, Piscataway, N.J., USA). […] Prior to the addition of ATP to initiate the phosphorylation reaction, CK2 enzyme was pre-incubated with inhibitors and other assay components for 5 min. Progress of the reaction was continuously monitored by the change in UV/Vis absorbance at 340 nm. […] In the case of very potent binding, tight-binding methods were employed to determine Ki.
# T1 sequence (P68400 whole entry): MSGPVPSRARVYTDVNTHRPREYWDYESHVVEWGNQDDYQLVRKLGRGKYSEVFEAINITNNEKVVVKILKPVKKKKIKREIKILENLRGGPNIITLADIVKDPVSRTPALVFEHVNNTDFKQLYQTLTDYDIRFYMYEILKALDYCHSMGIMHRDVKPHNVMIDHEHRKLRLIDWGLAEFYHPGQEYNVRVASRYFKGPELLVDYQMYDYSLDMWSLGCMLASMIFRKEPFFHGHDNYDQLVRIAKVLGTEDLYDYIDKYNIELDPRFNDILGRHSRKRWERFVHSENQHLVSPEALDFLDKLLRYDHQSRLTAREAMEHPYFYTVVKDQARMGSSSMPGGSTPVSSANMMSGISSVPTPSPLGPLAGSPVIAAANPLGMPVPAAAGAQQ
Structure (SMILES),IC50 (PC-3 cells) [nM],IC50 (HCT-116 cells) [nM],Ki (human CK2) [nM]
"O=C1CCCCc2cnn3c(NC4CC4)nc(nc23)Nc2cccc(c2)N1 [Compound 11a, (11,14)3,5N-{cyclopropyl-pyrazolo[1,5-a][1,3,5]triazin-4-ylamino}-(2N,4N)-phenyl-1,5-diaza-cyclotetradeca-8-one]",< 1000,< 1000,–
"O=C1CCCCc2cnn3c(Nc4cccnc4)nc(nc23)Nc2cccc(c2)N1 [Compound 11d, (11,14)3,5N-{pyrid-3-yl-pyrazolo[1,5-a][1,3,5]triazin-4-yl-amino}-(2N,4N)-phenyl-1,5-diaza-cyclotetradeca-8-one]",< 1000,< 1000,< 100
"CCOc1cccc(Nc2nc3nc4c(cnn24)CCCCC(=O)Nc2cccc(c2)N3)c1 [Compound 11e, (11,14)3,5N-{(3-ethoxyphenyl)-pyrazolo[1,5-a][1,3,5]triazin-4-yl-amino}-(2N,4N)-phenyl-1,5-diaza-cyclotetradeca-8-one]",< 1000,< 1000,< 100
"CN1CCC(N(C)C(=O)c2cccc(Nc3nc4nc5c(cnn35)CCCCC(=O)Nc3cccc(c3)N4)c2)C1 (centres unmarked) [Compound 11g, (11,14)3,5N-{3-(3-{[methyl(1-methylpyrrolidin-3-yl)amino]carbonyl}phenyl)-pyrazolo[1,5-a][1,3,5]triazin-4-yl-amino}-(2N,4N)-phenyl-1,5-diaza-cyclotetradeca-8-one]",< 1000,< 1000,< 100
"CN1CCN(C(=O)c2cccc(Nc3nc4nc5c(cnn35)CCCCC(=O)Nc3cccc(c3)N4)c2)CC1 [Compound 11h, (11,14)3,5N-{3-(4-methylpiperazin-1-ylcarbonyl)phenyl-pyrazolo[1,5-a][1,3,5]triazin-4-yl-amino}-(2N,4N)-phenyl-1,5-diaza-cyclotetradeca-8-one]",< 1000,< 1000,< 100
CN(C)C1CCN(C(=O)c2cccc(Nc3nc4nc5c(cnn35)CCCCC(=O)Nc3cccc(c3)N4)c2)C1 (centres unmarked) [Compound 11i],< 1000,< 1000,< 100
"CCN(CC)C(=O)c1cccc(Nc2nc3nc4c(cnn24)CCCCC(=O)Nc2cccc(c2)N3)c1 [Compound 11j, (11,14)3,5N-{4-[(3-{3-(diethylamino)carbonyl}phenyl)amino]-pyrazolo[1,5-a][1,3,5]triazin-4-yl-amino}-(2N,4N)-phenyl-1,5-diaza-cyclotetradeca-8-one]",< 1000,< 1000,< 100
"CN(C)CCNC(=O)c1cccc(Nc2nc3nc4c(cnn24)CCCCC(=O)Nc2cccc(c2)N3)c1 [Compound 11k, (11,14)3,5N-{4-{[3-({[2-(dimethylamino)ethyl]-amino}carbonyl)phenyl]amino}-pyrazolo[1,5-a][1,3,5]triazin-4-yl-amino}-(2N,4N)-phenyl-1,5-diaza-cyclotetradeca-8-one]",< 1000,< 1000,< 100
"O=C1CCCCc2cnn3c(Nc4cccc(C(=O)N5CC(O)C5)c4)nc(nc23)Nc2cccc(c2)N1 [Compound 11l, (11,14)3,5N-{4-({3-[(3-hydroxyazetidin-1-yl)carbonyl]phenyl}amino)-pyrazolo[1,5-a][1,3,5]triazin-4-yl-amino}-(2N,4N)-phenyl-1,5-diaza-cyclotetradeca-8-one]",< 1000,< 1000,< 100
CN1CC(NC(=O)c2cccc(Nc3nc4nc5c(cnn35)CCCCC(=O)Nc3cccc(c3)N4)c2)C1 [Compound 11m],< 1000,< 1000,< 100
"CN(C)CCN(C)C(=O)c1cccc(Nc2nc3nc4c(cnn24)CCCCC(=O)Nc2cccc(c2)N3)c1 [Compound 11n, (11,14)3,5N-{4-[(3-{[[2-(dimethylamino)ethyl](methyl)-amino]carbonyl}phenyl)amino]-pyrazolo[1,5-a][1,3,5]triazin-4-yl-amino}-(2N,4N)-phenyl-1,5-diaza-cyclotetradeca-8-one]",< 1000,< 1000,< 100
"CN1CCC(N(C)C(=O)c2cccc(Nc3nc4nc5c(cnn35)CCCCC(=O)Nc3cccc(c3)N4)c2)CC1 [Compound 11o, (11,14)3,5N-{4-[(3-{[methyl(1-methylpiperidin-4-yl)amino]carbonyl}-phenyl)amino]-pyrazolo[1,5-a][1,3,5]triazin-4-yl-amino}-(2N,4N)-phenyl-1,5-diaza-cyclotetradeca-8-one]",–,< 1000,< 100
"CCN(CC)C1CCN(C(=O)c2cccc(Nc3nc4nc5c(cnn35)CCCCC(=O)Nc3cccc(c3)N4)c2)C1 (centres unmarked) [Compound 11p, (11,14)3,5N-{[(3-{[3-(diethylamino)pyrrolidin-1-yl]carbonyl}phenyl)amino]-pyrazolo[1,5-a][1,3,5]triazin-4-yl-amino}-(2N,4N)-phenyl-1,5-diaza-cyclotetradeca-8-one]",< 1000,< 1000,< 100
"CCN(CC)C1CN(C(=O)c2cccc(Nc3nc4nc5c(cnn35)CCCCC(=O)Nc3cccc(c3)N4)c2)C1 [Compound 11q, (11,14)3,5N-{[(3-{[3-(diethylamino)azetidin-1-yl]carbonyl}-phenyl)amino]-pyrazolo[1,5-a][1,3,5]triazin-4-yl-amino}-(2N,4N)-phenyl-1,5-diaza-cyclotetradeca-8-one]",< 1000,< 1000,< 100
"O=C1CCCCc2cnn3c(Nc4cccc(C(=O)N5CCNCC5)c4)nc(nc23)Nc2cccc(c2)N1 [Compound 11r, (11,14)3,5N-{{[3-(piperazin-1-ylcarbonyl)phenyl]amino}-pyrazolo[1,5-a][1,3,5]triazin-4-yl-amino}-(2N,4N)-phenyl-1,5-diaza-cyclotetradeca-8-one]",–,< 1000,< 100
CCN(CC)CCN(C)C(=O)c1cccc(Nc2nc3nc4c(cnn24)CCCCC(=O)Nc2cccc(c2)N3)c1 [Compound 11s],–,< 1000,< 100
"CN(C)C1CCN(C(=O)c2cccc(Nc3cc4nc5c(cnn35)CCCCC(=O)Nc3cccc(c3)N4)c2)C1 (centres unmarked) [Compound 18a, (11,14)3,5N-{[(3-Dimethylamino-pyrrolidine-1-carbonyl)-phen-3-yl]-pyrazolo[1,5-a]pyrimidin-2,4-yl-diamino}-(2N,4N)-phenyl-1,5-diaza-cyclotetradecan-6-one]",< 3000,< 3000,< 100
O=C1CCCCc2cnn3c(NC4CC4)cc(nc23)Nc2cccc(c2)N1 [Compound 18b],< 3000,< 3000,< 100
